The values that follow come from patent publication US7928108B2, “Pyridinone derivative for the treatment of premature ejaculation” (Glaxo Group Limited, priority 2007, dated 2011).

The structures appear in SMILES notation.

In assay [1] the target is T1, Human 5-HT1A receptor (Homo sapiens, UniProt P08908).
T1 sequence (P08908 1-422): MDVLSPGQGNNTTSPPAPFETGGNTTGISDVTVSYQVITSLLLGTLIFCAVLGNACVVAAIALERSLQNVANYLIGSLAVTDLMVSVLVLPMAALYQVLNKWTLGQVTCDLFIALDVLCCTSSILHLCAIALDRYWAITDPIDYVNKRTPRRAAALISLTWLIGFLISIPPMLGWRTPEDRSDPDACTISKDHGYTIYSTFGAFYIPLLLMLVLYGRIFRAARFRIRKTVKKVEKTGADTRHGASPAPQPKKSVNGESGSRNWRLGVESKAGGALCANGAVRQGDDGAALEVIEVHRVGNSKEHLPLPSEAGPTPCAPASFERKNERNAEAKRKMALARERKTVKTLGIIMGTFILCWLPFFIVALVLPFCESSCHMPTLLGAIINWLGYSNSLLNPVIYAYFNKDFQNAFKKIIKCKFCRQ
Nature of the assay: Human 5-HT1A receptor functional potency, GTPγS binding protocol. The class given is biochemical. Set-up: expressed in transfected cells. The following applies: GTPγS binding, membranes of HEK293 cells transfected with human 5-HT1A; assay a); read-out: fpKi against 5-HT1A (converted). As for the experimental part:
a) Human 5-HT1A Receptor Functional Potency
The functional potency of the compounds of the invention for the 5-HT1A receptor may be determined by the following GTPγS binding protocol. Cells used in the study are CHO Cells and Human Embryo Kidney (HEK293). Transfect cells with DNA coding for human receptor as follows: HEK293—5-HT1A. Initially dissolve test compounds in 100% dimethyl sulfoxide to a concentration of 10 mM. Serially dilute the test compounds in 100% dimethyl sulphoxide using a Biomek FX in 384 well assay plates, so that the final top concentration of test compound is 3 μM in the assay. Add the test compound at 1.0% total assay volume (TAV) to a solid, white, 384 well assay plate (Griener). Add 50% TAV of precoupled (for 60 mins @ RT) membranes (6 ug/well), Wheatgerm Agglutinin Polystyrene Scintillation Proximity Assay beads (RPNQ0260 Amersham International) (0.25 mg/well) in 20 mM HEPES pH 7.4, 100 mM NaCl, 3 mM MgCl2 and 10 μM GDP and saponin 60 m/well FAC was also added. The third addition may be either a 20% TAV addition of either; buffer for agonist format, or EC80 final assay concentration (FAC) of agonist, prepared in assay buffer, 5HT, for antagonist format.
Start the assay by the addition of 29% TAV of GTPγS 0.38 nM FAC.
After all additions, incubate the assay plates at RT for 2-3 hours. […] Read the assay plates between 3-6 hours after the final addition.
(Binding of GTPγS marks nucleotide exchange on a G protein.)

Assay [2] addresses T1, Human 5-HT1A receptor. Kind of assay: Human 5-HT1A receptor affinity, [3H]WAY100635 radioligand binding. Set-up: expressed in transfected cells; host or cells: CHO. The following applies: CHO cell membranes expressing 5-HT1A, [3H]WAY100635 0.5 nM, 37° C. 45 minutes; assay b); read-out: pKi against 5-HT1A (converted). As for the experimental part:
(§1) b) Human 5-HT1A, 5-HT1B and 5-HT1D Receptor Affinity
(§2) The affinities of the compounds of the invention for the 5-HT1A, 5-HT1B and 5-HT1D receptors may be determined by the following assay.
(§3) Homogenise chinese hamster ovary (CHO) cells expressing 5-HT1A receptors (4×10^7 cells/ml) in Tris buffer and store in 1 ml aliquots. Homogenise CHO cells expressing 5-HT1B receptors (4×10^7 cells/ml) in Tris buffer and store in 1.5 ml aliquots. Homogenise CHO cells expressing 5-HT1D receptors (1×10^8/ml) in Tris buffer and stored in 1 ml aliquots. The binding assays are carried out in a total volume of 500 μl. For each compound to be tested make up seven solutions ranging in concentration from 0.3 mM to 0.3 nM (100× final concentrations). Dispense 5 μl of solution containing the test compound per well and add 100 μl of radioligand at 5× final desired assay concentration, i.e. [^3H]-5-HT 15 nM (final assay concentration: 3 nM) in Tris Mg HCl buffer (pH 7.7) for 5-HT1B/1D receptors and [^3H]WAY100635 2.5 nM (final assay concentration: 0.5 nM) in Tris Mg HCl buffer (pH 7.7) containing 150 μM GPP(NH)p (final assay concentration: 30 μM) for 5-HT1A receptors. Add 400 μl/well of a cell membrane suspension in Tris Mg HCl buffer (pH 7.7) to make a total volume of 505 μl. Incubate at 37° C. for 45 minutes. […] Measure radioactivity using Topcount scintillation counting. […]

Assay [3] deals with T2, Human 5-HT1B receptor (Homo sapiens, UniProt P28222).
T2 construct: expressed in transfected cells; host or cells: CHO
T2 sequence (P28222 whole entry): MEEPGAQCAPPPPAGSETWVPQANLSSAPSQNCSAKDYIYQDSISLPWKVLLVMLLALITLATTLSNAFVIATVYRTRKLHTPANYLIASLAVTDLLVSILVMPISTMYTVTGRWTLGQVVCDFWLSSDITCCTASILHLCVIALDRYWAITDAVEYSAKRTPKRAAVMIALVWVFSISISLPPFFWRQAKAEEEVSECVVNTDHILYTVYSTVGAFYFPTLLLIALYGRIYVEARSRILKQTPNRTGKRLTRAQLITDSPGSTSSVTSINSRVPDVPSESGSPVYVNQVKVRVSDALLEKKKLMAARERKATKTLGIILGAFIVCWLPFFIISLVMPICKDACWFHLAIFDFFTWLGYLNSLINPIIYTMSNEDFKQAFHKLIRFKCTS
Nature of the assay: Human 5-HT1B receptor affinity, [3H]-5-HT radioligand binding. The following applies: CHO cell membranes expressing 5-HT1B, [3H]-5-HT 3 nM, 37° C. 45 minutes; assay b); read-out: pKi against 5-HT1B (converted). As for the experimental part: as §1, §2, §3

On to `COc1cccn(CCCCN2CCN(c3cccc4nc(C)ccc34)CC2)c1=O` [compound of formula (I), 3-(methyloxy)-1-{4-[4-(2-methyl-5-quinolinyl)-1-piperazinyl]butyl}-2(1H)-pyridinone], for which the figures for the Ki in assay [1], in assay [2] and in assay [3] were 0.501 nM, 0.501 nM and 200 nM, respectively.
